Reference: PMC9395488, “First-in-human study of IM156, a novel potent biguanide oxidative phosphorylation (OXPHOS) inhibitor, in patients with advanced solid tumors” (Investigational New Drugs, 2022)

Tested on: patients with advanced solid tumors
Test: First-in-human phase 1 dose-escalation study: safety, DLTs, adverse events
Assay type: in vivo
Excerpt: This multicenter first-in-human dose-escalation phase 1 study (clinicaltrials.gov identifier: NCT03272256) was designed to determine the MTD or RP2D and to evaluate the safety and tolerability of IM156. Secondary endpoints included PK characteristics, efficacy assessment (objective response rate [ORR], disease control rate [DCR], duration of response [DoR] and progression-free survival [PFS]). Furthermore, exploratory objectives included identification and profiling of IM156 metabolites, evaluations of exploratory PD markers of IM156, and evaluations of any potential relationship between putative biomarkers and safety/efficacy parameters of IM156. The study was conducted in accordance with Good Clinical Practice, the International Council for Harmonisation, and guidelines governing clinical study conduct and the ethical principles originating from the Declaration of Helsinki. The study was approved by each Institutional Review Board and patients provided written informed consent. Patients were enrolled at three sites in South Korea.
The initial dose and schedule of IM156 was chosen based on animal toxicology studies. […] IM156 was administered in the fasted state, with no food for at least 2 h before and 1 h after dosing.
Three DLT-evaluable patients were enrolled at each dose level. If there were no DLTs or other prohibitive adverse events (AEs), the Safety Committee was allowed to recommend escalation to the next highest dose level. If 1 DLT occurred in the first 3 DLT-evaluable patients, enrollment in that cohort was expanded to an additional 3 DLT-evaluable patients; if ≥ 2 DLTs were reported in a cohort, that dose was considered above the MTD.
Safety was assessed through vital signs, weight, laboratory assessments, physical examinations, electrocardiogram, and reporting of AEs as graded by the National Cancer Institute’s Common Terminology Criteria for Adverse Events v4.03 (NCI-CTCAE).
DLTs were defined as the following AEs if they were attributed as related to IM156: asymptomatic grade 4 neutropenia lasting for ≥ 5 days; febrile neutropenia, regardless of grade; grade 4 thrombocytopenia or grade 3 thrombocytopenia with bleeding; any grade ≥ 3 non-hematologic AE (except grade 3 hypertension and grade 3 nausea, vomiting or diarrhea for which proper measures for prevention and treatment were not implemented, and alopecia); blood lactate levels > 5 mmol; grade ≥ 2 AE prohibiting dosing of IM156 for ≥ 21 continuous days except for alterations in serum calcium or phosphorus levels. The safety analysis includes all patients who received at least one dose of study drug.
The safety population was defined as all patients who received at least one dose of IM156. The PK population was not defined in the protocol but included all patients with sufficient PK data to perform adequate PK modeling. The efficacy population included all patients who underwent at least one tumor imaging assessment while receiving IM156. Safety was assessed using descriptive statistics (e.g., DLTs, AEs, laboratory tests, physical examination, 12-lead ECG). The incidence and number of events were reported for the DLTs observed in Cycle 1 per dose group. […] Adverse events and TRAEs were standardized with the System Organ Class and the Preferred Term using the Medical Dictionary for Regulatory Activities v23.0. In addition, TEAEs, serious adverse events (SAEs), TEAE severity, and TEAEs leading to withdrawal were presented by dose group. Efficacy data were to be presented by Waterfall and Swim Lane plots. Time to event endpoints (e.g., DoR, PFS) were determined using Kaplan–Meier estimations with the median value for each endpoint summarized.

[1] = all dose level/grade cells not in own entries

NC(=Nc1ccc(OC(F)(F)F)cc1)N=C(N)N1CCCC1 [IM156]
TEAE Diarrhoea, grade 2 (Total, all dose levels): 3
TEAE Dysesthesia, grade 1 (Total, all dose levels): 1
TEAE Fatigue, grade 1 (Total, all dose levels): 2
TEAE Fatigue, grade 2 (Total, all dose levels): 4
TEAE Gamma-glutamyltransferase increased, grade 2 (Total, all dose levels): 1
TEAE Gamma-glutamyltransferase increased, grade 3 (Total, all dose levels): 1
TEAE Gastritis, grade 1 (Total, all dose levels): 1
TEAE Gastrointestinal pain, grade 1 (Total, all dose levels): 1
TEAE Gastrointestinal pain, grade 2 (Total, all dose levels): 1
TEAE Headache, grade 1 (Total, all dose levels): 1
TEAE Headache, grade 2 (Total, all dose levels): 1
TEAE Hemoptysis, grade 2 (Total, all dose levels): 1
TEAE Hyperkalaemia, grade 3 (Total, all dose levels): 1
TEAE Hypoalbuminaemia, grade 2 (Total, all dose levels): 2
TEAE Hypocalcemia, grade 2 (Total, all dose levels): 1
TEAE Ileus, grade 2 (Total, all dose levels): 1
TEAE Ileus, grade 3 (Total, all dose levels): 1
TEAE Influenza like illness, grade 1 (Total, all dose levels): 1
TEAE Large intestinal obstruction, grade 2 (Total, all dose levels): 1
TEAE Lethargy, grade 2 (Total, all dose levels): 1
TEAE Nausea, grade 1 (Total, all dose levels): 8
TEAE Nausea, grade 2 (Total, all dose levels): 5
TEAE Nausea, grade 3 (Total, all dose levels): 3
TEAE Neutrophil count decreased, grade 4 (Total, all dose levels): 1
TEAE Obstruction gastric, grade 3 (Total, all dose levels): 1
TEAE Oedema peripheral, grade 2 (Total, all dose levels): 1
TEAE Oropharyngeal pain, grade 1 (Total, all dose levels): 1
TEAE Pain, grade 2 (Total, all dose levels): 1
TEAE Peripheral sensory neuropathy, grade 1 (Total, all dose levels): 1
TEAE Platelet count decreased, grade 1 (Total, all dose levels): 1
TEAE Pleural effusion, grade 2 (Total, all dose levels): 1
TEAE Proctalgia, grade 2 (Total, all dose levels): 1
TEAE Pyrexia, grade 1 (Total, all dose levels): 5
TEAE Pyrexia, grade 2 (Total, all dose levels): 1
TEAE Toothache, grade 1 (Total, all dose levels): 1
TEAE Vomiting, grade 1 (Total, all dose levels): 10
TEAE Vomiting, grade 2 (Total, all dose levels): 1
TEAE Abdominal discomfort, dose level/grade cells without event [1]: 0
TEAE Abdominal distension, dose level/grade cells without event [1]: 0
TEAE Abdominal pain upper, dose level/grade cells without event [1]: 0
TEAE Abdominal pain, dose level/grade cells without event [1]: 0
TEAE Akathisia, dose level/grade cells without event [1]: 0
TEAE Alanine aminotransferase increased, dose level/grade cells without event [1]: 0
TEAE Ascites, dose level/grade cells without event [1]: 0
TEAE Aspartate aminotransferase increased, dose level/grade cells without event [1]: 0
TEAE Asthenia, dose level/grade cells without event [1]: 0
TEAE Blood alkaline phosphatase increased, dose level/grade cells without event [1]: 0
TEAE Blood creatinine increased, dose level/grade cells without event [1]: 0
TEAE Blood lactic acid increased, dose level/grade cells without event [1]: 0
TEAE Chest pain, dose level/grade cells without event [1]: 0
TEAE Constipation, dose level/grade cells without event [1]: 0
TEAE Cough, dose level/grade cells without event [1]: 0
TEAE Decreased appetite, dose level/grade cells without event [1]: 0
TEAE Diarrhoea, dose level/grade cells without event [1]: 0
TEAE Dysesthesia, dose level/grade cells without event [1]: 0
TEAE Fatigue, dose level/grade cells without event [1]: 0
TEAE Gamma-glutamyltransferase increased, dose level/grade cells without event [1]: 0
TEAE Gastritis, dose level/grade cells without event [1]: 0
TEAE Gastrointestinal pain, dose level/grade cells without event [1]: 0
TEAE Headache, dose level/grade cells without event [1]: 0
TEAE Hemoptysis, dose level/grade cells without event [1]: 0
TEAE Hyperkalaemia, dose level/grade cells without event [1]: 0
TEAE Hypoalbuminaemia, dose level/grade cells without event [1]: 0
TEAE Hypocalcemia, dose level/grade cells without event [1]: 0
TEAE Ileus, dose level/grade cells without event [1]: 0
TEAE Influenza like illness, dose level/grade cells without event [1]: 0
TEAE Large intestinal obstruction, dose level/grade cells without event [1]: 0
TEAE Lethargy, dose level/grade cells without event [1]: 0
TEAE Nausea, dose level/grade cells without event [1]: 0
TEAE Neutrophil count decreased, dose level/grade cells without event [1]: 0
TEAE Obstruction gastric, dose level/grade cells without event [1]: 0
TEAE Oedema peripheral, dose level/grade cells without event [1]: 0
TEAE Oropharyngeal pain, dose level/grade cells without event [1]: 0
TEAE Pain, dose level/grade cells without event [1]: 0
TEAE Peripheral sensory neuropathy, dose level/grade cells without event [1]: 0
TEAE Platelet count decreased, dose level/grade cells without event [1]: 0
TEAE Pleural effusion, dose level/grade cells without event [1]: 0
TEAE Proctalgia, dose level/grade cells without event [1]: 0
TEAE Pyrexia, dose level/grade cells without event [1]: 0
TEAE Toothache, dose level/grade cells without event [1]: 0
TEAE Vomiting, dose level/grade cells without event [1]: 0
days of interruption due to a TEAE, range (all doses): 2 to 11 days
median number of days of interruption due to a TEAE (all doses): 3 days
number of SAEs reported (all doses): Nine
number of laboratory AEs (all doses): 28
Grade 3 nausea (TRAE), percent of patients (all doses, N = 22): 14%
TRAE abdominal pain, percent of patients (all doses, N = 22): 9%
TRAE constipation, percent of patients (all doses, N = 22): 9%
TRAE diarrhea, percent of patients (all doses, N = 22): 46%
TRAE emesis (vomiting), percent of patients (all doses, N = 22): 41%
TRAE fatigue, percent of patients (all doses, N = 22): 18%
TRAE nausea, percent of patients (all doses, N = 22): 68%
TRAEs grade 3 or higher, percent of patients (all doses, N = 22): 14%
patients in whom nausea and emesis required anti-emetic medications (all doses, N = 22): 14 patients
patients in whom nausea and emesis required anti-emetic medications, percent (all doses, N = 22): 64%
patients with SAEs (all doses, N = 22): 8 patients
patients with TRAEs (all doses, N = 22): 19 patients
patients with TRAEs, percent (all doses, N = 22): 86%
patients with a TEAE leading to dose interruption (all doses, N = 22): 7 patients
patients with a TEAE leading to dose interruption, percent (all doses, N = 22): 32%
patients with at least one TEAE (all doses, N = 22): 22 patients
patients with at least one TEAE, percent (all doses, N = 22): 100%
patients with gastrointestinal (GI) TRAEs (all doses, N = 22): 18 patients
patients with gastrointestinal (GI) TRAEs, percent (all doses, N = 22): 82%
total number of TEAEs reported (all doses, N = 22): 146
TRAE blood lactate (lactic acid) increased, percent of patients (all doses, N = 22, Grade 1): 9%
Dose-limiting toxicity (dose level 1, 100 mg QOD oral, 3 patients): 0
Dose-limiting toxicity (dose level 2, 200 mg QOD oral, 3 patients): 0
Dose-limiting toxicity (dose level 3, 400 mg QOD oral, 3 patients): 0
Dose-limiting toxicity (dose level 4, 800 mg QOD oral, 3 patients): 0
Dose-limiting toxicity (dose level 5, 1,200 mg QOD oral, 3 patients): 0
Dose-limiting toxicity (dose level 6, 800 mg QD oral, 3 patients): 0
Dose-limiting toxicity (dose level 7, 1,200 mg QD oral, 4 patients): 0
SAEs attributed to IM156 (grade 3 nausea at 1,200 mg QOD): 1
laboratory AEs considered not related to IM156 (of 28 laboratory AEs): 26
laboratory AEs considered not related to IM156, percent (of 28 laboratory AEs): 93%
recommended phase 2 dose (RP2D) (oral, QD): 800 mg
maximum tolerated dose (MTD) (per protocol, 100 to 1,200 mg QOD or QD): not reached
